The target of experiment [1] is T1, ACLY (Homo sapiens (Human), UniProt P53396). In words: InCell Pulse assay (permeate HEK293 cells, bind to and stabilize ACLY). Type of experiment: cell-based. As to conditions: HEK293 cells transfected with pICP-ACLY(FL)-ePL; 1 hour at 37° C., 55° C. heat pulse 10 minutes; read-out: InCell Pulse IC50 GMean. On the procedure:
HEK293 cells transfected for 24 hours with pICP-ACLY(FL)-ePL (3 μg DNA per T25 flask) using FuGene HD (Promega Corp.) were harvested and cryopreserved. On the day of the assay, the frozen transfected cells were thawed at 37° C., and the storage medium (DMEM with 2 mM L-Glutamine, 10% FBS and a final concentration of DMSO 10%) was exchanged with assay medium (OptiMEM; Gibco™, ThermoFischer Scientific). Compounds were 3-fold serially diluted in DMSO over 11-point concentration range. 100 nL of the corresponding dilutions were spotted into the assay plate (Greiner AG; 384 Well, PP, Small Volume, Deep Well, Natural, cat. no. 784201) followed by the addition of 20 μL of cell suspension adjusted with assay medium to 7.5E4 cells/mL. Subsequently, the plates were sealed and incubated for 1 hour at 37° C. Afterwards, the plates were fixed upside down in a rack and incubated in a 55° C. water bath for 10 minutes. Following this heat pulse step, plates were allowed to reach room temperature for 10 minutes and centrifuged for a few seconds at 1000 rpm and room temperature. 25 μL EA detection solution (working solution: 0.0167× InCell EA Reagent, 0.15× InCell Dilution Buffer, 0.167× InCell Lysis Buffer; 0.667× InCell Substrate Reagent; InCell Hunter Detection kit; Eurofins DiscoverX; cat. no. 96-0079) were added to each well. Afterwards, 42 μL were transferred from the assay plate to the detection plate (Corning Inc., 384-well Low Flange Black Flat Bottom Polystyrene NBS Microplate, cat. no. 3575), followed by an incubation for 1 hour at room temperature, a centrifugation step for 1 minute at 1000 rpm and the detection of the luminescence signal using an EnVision microplate reader (Perkin Elmer Inc.). Concentration-response curve-fitting and IC50 determination was performed using Evotec's in-house evaluation software APlus with a four-parameter non-linear regression fit model. Data was normalized to 0.5% (final concentration) DMSO as low/negative control and 1 μM (final concentration) NDI-094311 as high/positive control.

For experiment [2], the target named is T1, ACLY. The experiment in a line: Human ACLY (hACLY) RF/MS activity assay. Type of experiment: biochemical. As to conditions: 1 nM hACLY; 30 min pre-incubation; 15 μM Coenzyme A, 50 μM ATP, 50 μM citrate; CoA to Acetyl-CoA by RF/MS; read-out: RFMS IC50 GMean. On the procedure:
Compounds of the disclosure were evaluated for their efficacy in inhibiting hACLY using rapid fire mass spectrometry (RF/MS).
The final reaction volume for each compound was 20 μl and consisted of buffer (50 mM Hepes pH 8.0, 10 mM MgCl2, 0.003% BSA, 0.01% Brij35, 50 mM NaCl, 4 mM DTT) and 1 nM hACLY, EV12992, PP6692) using Greiner, 384 well small volume, deep well plates (Cat #784201). A two-fold dilution series with a top concentration of 10 μM was used to record a concentration response curve. Both the substrate (CoA) and product (Acetyl-CoA) were quantified, and given a ratio. […] The final DMSO-concentration was 1% (v/v). Compounds were pre-incubated for 30 min with the buffered enzyme solution at RT (20° C.), and substrate solution was added (final concentrations: 15 μM Coenzyme A, 50 μM ATP and 50 μM citrate) to initiate the enzyme reaction. The enzyme reaction was incubated for additional 30 min at RT. The reaction was quenched upon addition of 40 μl of 5% Formic acid in H2O and centrifuged (4350 rpm at 20° C. for 10 min).
Product formation was quantified using a RF/MS-based method based on mass change of CoA (substrate) to Acetyl-CoA (product).

IC50 data for 18 compounds are collected here from patent US20250289793A1, “MACROCYCLIC INHIBITORS OF ATP CITRATE LYASE” (Esperion Therapeutics, Inc., priority 2022, published 2025).

T1 sequence (P53396 whole entry): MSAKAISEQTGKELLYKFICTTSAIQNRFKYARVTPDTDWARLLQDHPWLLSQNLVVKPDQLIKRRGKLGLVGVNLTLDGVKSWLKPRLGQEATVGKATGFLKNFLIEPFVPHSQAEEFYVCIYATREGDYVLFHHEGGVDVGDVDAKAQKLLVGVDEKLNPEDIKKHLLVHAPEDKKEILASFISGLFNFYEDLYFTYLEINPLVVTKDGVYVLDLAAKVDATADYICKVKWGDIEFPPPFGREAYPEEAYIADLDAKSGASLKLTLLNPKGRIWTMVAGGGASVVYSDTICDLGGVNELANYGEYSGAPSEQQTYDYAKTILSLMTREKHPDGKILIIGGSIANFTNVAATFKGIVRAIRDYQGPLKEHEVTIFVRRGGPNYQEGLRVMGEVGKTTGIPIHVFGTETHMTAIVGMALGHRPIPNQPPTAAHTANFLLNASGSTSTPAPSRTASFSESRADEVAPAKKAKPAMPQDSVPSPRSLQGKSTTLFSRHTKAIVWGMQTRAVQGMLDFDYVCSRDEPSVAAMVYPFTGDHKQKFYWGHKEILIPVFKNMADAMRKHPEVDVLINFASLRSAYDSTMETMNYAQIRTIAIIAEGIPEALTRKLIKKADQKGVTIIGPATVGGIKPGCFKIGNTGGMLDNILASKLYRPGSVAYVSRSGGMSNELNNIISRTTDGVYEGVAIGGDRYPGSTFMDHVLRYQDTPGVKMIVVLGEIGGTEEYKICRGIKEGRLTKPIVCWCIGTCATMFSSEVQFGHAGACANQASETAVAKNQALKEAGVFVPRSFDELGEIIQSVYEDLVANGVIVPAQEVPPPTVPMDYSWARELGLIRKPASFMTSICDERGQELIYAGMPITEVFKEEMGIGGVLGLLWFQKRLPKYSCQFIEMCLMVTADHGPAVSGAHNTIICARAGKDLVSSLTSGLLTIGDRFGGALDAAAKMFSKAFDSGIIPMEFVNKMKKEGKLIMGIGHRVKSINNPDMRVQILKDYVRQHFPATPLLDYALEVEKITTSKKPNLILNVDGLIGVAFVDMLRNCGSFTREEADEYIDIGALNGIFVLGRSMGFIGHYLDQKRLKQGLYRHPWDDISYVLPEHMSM

For the compound `O=C1OCC2Cc3cccc(c3O2)-c2cc(c(F)cc2F)NS(=O)(=O)c2cc1cc(Cl)c2O` (single isomer, unassigned) [Compound 40, 15-chloro-21,23-difluoro-16-hydroxy-18,18-dioxo-8,11-dioxa-18λ6-thia-19-azapentacyclo[18.3.1.16,9.113,17.02,7]hexacosa-1(23),2(7),3,5,13,15,17(25),20(24),21-nonaen-12-one], the IC50 at ACLY [1] lay within 300 to 1000 nM; on ACLY [2] it was 100 to 10000 nM. `O=C1OCC2Cc3cccc(c3O2)-c2cc(c(F)cc2F)NS(=O)(=O)c2cc1cc(Cl)c2O` (single isomer, unassigned) [Compound 41, 15-chloro-21,23-difluoro-16-hydroxy-18,18-dioxo-8,11-dioxa-18λ6-thia-19-azapentacyclo[18.3.1.16,9.113,17.02,7]hexacosa-1(23),2(7),3,5,13,15,17(25),20(24),21-nonaen-12-one]: the IC50 at ACLY [1] is less than 300 nM.

For `CC1CCOC(=O)c2cc(Cl)c(O)c(c2)S(=O)(=O)Nc2cc(c(F)cc2F)-c2ccccc21` (single isomer, unassigned) [Compound 44, 15-chloro-21,23-difluoro-16-hydroxy-8-methyl-18,18-dioxo-11-oxa-18λ6-thia-19-azatetracyclo[18.3.1.113,17.02,7]pentacosa-1(23),2(7),3,5,13,15,17(25),20(24),21-nonaen-12-one], the IC50 lay in the range of 1000 to 50000 nM at ACLY [1] and 100 to 10000 nM on ACLY [2]. For `CC1CCOC(=O)c2cc(Cl)c(O)c(c2)S(=O)(=O)Nc2cc(c(F)cc2F)-c2ccccc21` (single isomer, unassigned) [Compound 45, 15-chloro-21,23-difluoro-16-hydroxy-8-methyl-18,18-dioxo-11-oxa-18λ6-thia-19-azatetracyclo[18.3.1.113,17.02,7]pentacosa-1(23),2(7),3,5,13,15,17(25),20(24),21-nonaen-12-one], the IC50 is less than 300 nM at ACLY [1] and 20 to 100 nM on ACLY [2]. For `O=C1NCCOc2ccccc2-c2cc3c(cc2F)CCN3C(=O)c2cc1ccc2O` [Compound 11, 24-fluoro-16-hydroxy-8-oxa-11,19-diazapentacyclo[17.5.2.1^13,17.0^2,7.0^22,26]heptacosa-1(24),2,4,6,13,15,17(27),22,25-nonaene-12,18-dione], the IC50 at ACLY [2] was not below 10000 nM. On to `O=C1NCCOc2ccccc2-c2cc(c(F)cc2F)NC(=O)c2cc1ccc2O` [Compound 12, 21,23-difluoro-16-hydroxy-8-oxa-11,19-diazatetracyclo[18.3.1.1^13,17.0^2,7]pentacosa-1(23),2,4,6,13,15,17(25),20(24),21-nonaene-12,18-dione], for which the IC50 at ACLY [1] is not below 50000 nM; on ACLY [2] it was not below 10000 nM.

As to `O=C1NCCOc2ccccc2-c2cc(c(F)cc2F)NCc2cc1ccc2O` [Compound 13, 21,23-difluoro-16-hydroxy-8-oxa-11,19-diazatetracyclo[18.3.1.1^13,17.0^2,7]pentacosa-1(23),2,4,6,13,15,17(25),20(24),21-nonaen-12-one], the IC50 on ACLY [1] was not below 50000 nM; on ACLY [2], not below 10000 nM.

Regarding `O=C1NCCOc2ccccc2-c2cc(c(F)cc2F)CS(=O)(=O)c2cc1cc(Cl)c2O` [Compound 14, 15-chloro-21,23-difluoro-16-hydroxy-8-oxa-18lambda6-thia-11-azatetracyclo[18.3.1.1^13,17.0^2,7]pentacosa-1(24),2,4,6,13,15,17(25),20,22-nonaene-12,18,18-trione], the values for the IC50 at ACLY [1] and at ACLY [2] were not below 50000 nM and not below 10000 nM, respectively. In the case of `O=C1OCCc2ccccc2-c2cc(c(F)cc2F)NS(=O)(=O)c2cc1cc(Cl)c2O` [Compound 21, 14-chloro-20,22-difluoro-15-hydroxy-10-oxa-17lambda6-thia-18-azatetracyclo[17.3.1.1^12,16.0^2,7]tetracosa-1(23),2,4,6,12,14,16(24),19,21-nonaene-11,17,17-trione], the IC50 at ACLY [1] is less than 300 nM; at ACLY [2], less than 20 nM.

`O=C1OCCCc2c(sc3ccccc23)-c2cc(c(F)cc2F)NS(=O)(=O)c2cc1cc(Cl)c2O` [Compound 22, 18-chloro-24,26-difluoro-19-hydroxy-14-oxa-3,21lambda6-dithia-22-azapentacyclo[21.3.1.1^16,20.0^2,10.0^4,9]octacosa-1(27),2(10),4,6,8,16,18,20(28),23,25-decaene-15,21,21-trione]: the IC50 on ACLY [1] was not below 50000 nM; on ACLY [2] it was 20 to 100 nM. Consider `O=C1OCCOc2ccccc2-c2ccc(F)c(c2)NS(=O)(=O)c2cc1cc(Cl)c2O` [Compound 23, 15-chloro-21-fluoro-16-hydroxy-8,11-dioxa-18lambda6-thia-19-azatetracyclo[18.3.1.1^13,17.0^2,7]pentacosa-1(24),2,4,6,13,15,17(25),20,22-nonaene-12,18,18-trione], for which the IC50 is less than 300 nM at ACLY [1] and less than 20 nM at ACLY [2]. The matching figures for `O=C1OCCOc2ccc(Br)cc2-c2cc(c(F)cc2F)NS(=O)(=O)c2cc1cc(Cl)c2O` [Compound 24, 4-bromo-15-chloro-21,23-difluoro-16-hydroxy-8,11-dioxa-18lambda6-thia-19-azatetracyclo[18.3.1.1^13,17.0^2,7]pentacosa-1(24),2,4,6,13,15,17(25),20,22-nonaene-12,18,18-trione]: less than 300 nM and 20 to 100 nM. `COc1c(Cl)cc2cc1S(=O)(=O)Nc1cc(ccc1O)-c1ccccc1OCCOC2=O` [Compound 25, 15-chloro-21-hydroxy-16-methoxy-8,11-dioxa-18lambda6-thia-19-azatetracyclo[18.3.1.1^13,17.0^2,7]pentacosa-1(24),2,4,6,13,15,17(25),20,22-nonaene-12,18,18-trione]: the IC50 on ACLY [2] is not below 10000 nM. `COc1ccc2cc1NS(=O)(=O)c1cc(cc(Cl)c1O)C(=O)OCCOc1ccccc1-2` [Compound 26, 15-chloro-16-hydroxy-21-methoxy-8,11-dioxa-18lambda6-thia-19-azatetracyclo[18.3.1.1^13,17.0^2,7]pentacosa-1(24),2,4,6,13,15,17(25),20,22-nonaene-12,18,18-trione]: the IC50 on ACLY [1] is 300 to 1000 nM; on ACLY [2], less than 20 nM. The matching figures for `O=C1OCCCn2c(cc3ccccc32)-c2cc(c(F)cc2F)NS(=O)(=O)c2cc1cc(Cl)c2O` [Compound 27, 18-chloro-24,26-difluoro-19-hydroxy-14-oxa-21lambda6-thia-10,22-diazapentacyclo[21.3.1.1^16,20.0^2,10.0^4,9]octacosa-1(27),2,4,6,8,16,18,20(28),23,25-decaene-15,21,21-trione]: not below 50000 nM and 20 to 100 nM. For `N#Cc1ccc2c(c1)-c1cc(c(F)cc1F)NS(=O)(=O)c1cc(cc(Cl)c1O)C(=O)OCCO2` [Compound 28, 15-chloro-21,23-difluoro-16-hydroxy-12,18,18-trioxo-8,11-dioxa-18lambda6-thia-19-azatetracyclo[18.3.1.1^13,17.0^2,7]pentacosa-1(24),2,4,6,13,15,17(25),20,22-nonaene-4-carbonitrile], in that order: 300 to 1000 nM and 20 to 100 nM. In the case of `O=C1OCCCOc2cc(F)ccc2-c2cc(c(F)cc2F)NS(=O)(=O)c2cc1cc(Cl)c2O` [Compound 29, 16-chloro-5,22,24-trifluoro-17-hydroxy-8,12-dioxa-19lambda6-thia-20-azatetracyclo[19.3.1^1,4,18.0^2,7]hexacosa-1(25),2,4,6,14,16,18(26),21,23-nonaene-13,19,19-trione], the IC50 at ACLY [1] was 300 to 1000 nM; at ACLY [2], 20 to 100 nM.

In the case of `O=C1OCCOc2ccccc2-c2ccc(F)c(c2)NS(=O)(=O)c2cc1ncc2O` [Compound 66, 21-fluoro-16-hydroxy-18,18-dioxo-8,11-dioxa-18λ6-thia-14,19-diazatetracyclo[18.3.1.113,17.02,7]pentacosa-1(24),2,4,6,13,15,17(25),20,22-nonaen-12-one], the IC50 on ACLY [2] fell in the range of 20 to 100 nM.
